Measurements: US20250034216A1, “STEREOSELECTIVE COVALENT LIGANDS FOR ONCOGENIC AND IMMUNOLOGICAL PROTEINS” (The Scripps Research Institute, priority 2021, published 2025)

Tests used:
[1] = molecular target: T1, VWA5B2_C1040 (Homo sapiens, UniProt Q8N398); test: IA-DTB cysteine engagement; type: binding; conditions: 22Rv1 cells, 20 μM probe, 1 h, relative to DMSO
T1 construct: endogenous in cells; host or cells: 22Rv1
T1 sequence (Q8N398 1-1242): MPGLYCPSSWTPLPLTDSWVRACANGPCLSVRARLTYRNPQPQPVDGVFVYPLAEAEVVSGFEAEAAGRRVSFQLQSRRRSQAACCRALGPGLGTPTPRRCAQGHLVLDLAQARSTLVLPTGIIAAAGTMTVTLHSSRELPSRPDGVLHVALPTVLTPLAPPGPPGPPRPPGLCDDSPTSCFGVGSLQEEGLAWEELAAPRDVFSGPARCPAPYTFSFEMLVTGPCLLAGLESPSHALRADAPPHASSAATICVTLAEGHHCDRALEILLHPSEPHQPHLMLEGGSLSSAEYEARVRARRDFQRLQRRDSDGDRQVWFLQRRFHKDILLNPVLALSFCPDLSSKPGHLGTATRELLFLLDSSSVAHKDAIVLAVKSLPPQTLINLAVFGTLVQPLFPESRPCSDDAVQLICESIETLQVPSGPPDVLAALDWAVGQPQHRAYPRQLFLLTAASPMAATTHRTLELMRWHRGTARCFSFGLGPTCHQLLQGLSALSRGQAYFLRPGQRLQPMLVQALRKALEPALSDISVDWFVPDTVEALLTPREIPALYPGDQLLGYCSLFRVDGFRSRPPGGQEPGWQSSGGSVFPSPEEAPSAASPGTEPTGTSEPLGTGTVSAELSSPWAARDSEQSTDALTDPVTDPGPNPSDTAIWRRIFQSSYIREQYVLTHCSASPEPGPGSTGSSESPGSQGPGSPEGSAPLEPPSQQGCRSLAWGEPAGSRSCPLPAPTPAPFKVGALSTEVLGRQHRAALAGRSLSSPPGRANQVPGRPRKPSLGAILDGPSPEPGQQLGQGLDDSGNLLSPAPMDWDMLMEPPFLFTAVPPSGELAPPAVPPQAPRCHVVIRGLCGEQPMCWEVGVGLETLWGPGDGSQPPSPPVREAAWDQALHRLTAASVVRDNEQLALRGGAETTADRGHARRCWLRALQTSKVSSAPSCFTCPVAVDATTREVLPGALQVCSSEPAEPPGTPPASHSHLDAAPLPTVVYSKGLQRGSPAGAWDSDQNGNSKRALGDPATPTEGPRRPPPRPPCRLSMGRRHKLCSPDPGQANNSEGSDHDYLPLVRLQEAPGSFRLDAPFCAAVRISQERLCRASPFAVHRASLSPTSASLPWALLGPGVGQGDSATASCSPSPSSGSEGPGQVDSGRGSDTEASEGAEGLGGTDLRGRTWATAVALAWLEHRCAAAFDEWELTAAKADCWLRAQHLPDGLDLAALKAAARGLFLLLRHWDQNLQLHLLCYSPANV
Procedure, shortened: (§1)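 Competitive chemoproteomics: residual cysteine reactivity toward IA-DTB in lysates from probe-treated cells was quantified by TMT reporter ions relative to DMSO-treated controls. Replicates sharing cell line, probe, concentration and duration were averaged.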

[2] = molecular target: T2, NCAPD2_C439 (Homo sapiens, UniProt Q15021); test: IA-DTB cysteine engagement; type: binding; conditions: 22Rv1 cells, 20 μM probe, 1 h, relative to DMSO; for % engagement NCAPD2_C439: 60 min, 20 µM
T2 construct: endogenous in cells; host or cells: 22Rv1
T2 sequence (Q15021 whole entry): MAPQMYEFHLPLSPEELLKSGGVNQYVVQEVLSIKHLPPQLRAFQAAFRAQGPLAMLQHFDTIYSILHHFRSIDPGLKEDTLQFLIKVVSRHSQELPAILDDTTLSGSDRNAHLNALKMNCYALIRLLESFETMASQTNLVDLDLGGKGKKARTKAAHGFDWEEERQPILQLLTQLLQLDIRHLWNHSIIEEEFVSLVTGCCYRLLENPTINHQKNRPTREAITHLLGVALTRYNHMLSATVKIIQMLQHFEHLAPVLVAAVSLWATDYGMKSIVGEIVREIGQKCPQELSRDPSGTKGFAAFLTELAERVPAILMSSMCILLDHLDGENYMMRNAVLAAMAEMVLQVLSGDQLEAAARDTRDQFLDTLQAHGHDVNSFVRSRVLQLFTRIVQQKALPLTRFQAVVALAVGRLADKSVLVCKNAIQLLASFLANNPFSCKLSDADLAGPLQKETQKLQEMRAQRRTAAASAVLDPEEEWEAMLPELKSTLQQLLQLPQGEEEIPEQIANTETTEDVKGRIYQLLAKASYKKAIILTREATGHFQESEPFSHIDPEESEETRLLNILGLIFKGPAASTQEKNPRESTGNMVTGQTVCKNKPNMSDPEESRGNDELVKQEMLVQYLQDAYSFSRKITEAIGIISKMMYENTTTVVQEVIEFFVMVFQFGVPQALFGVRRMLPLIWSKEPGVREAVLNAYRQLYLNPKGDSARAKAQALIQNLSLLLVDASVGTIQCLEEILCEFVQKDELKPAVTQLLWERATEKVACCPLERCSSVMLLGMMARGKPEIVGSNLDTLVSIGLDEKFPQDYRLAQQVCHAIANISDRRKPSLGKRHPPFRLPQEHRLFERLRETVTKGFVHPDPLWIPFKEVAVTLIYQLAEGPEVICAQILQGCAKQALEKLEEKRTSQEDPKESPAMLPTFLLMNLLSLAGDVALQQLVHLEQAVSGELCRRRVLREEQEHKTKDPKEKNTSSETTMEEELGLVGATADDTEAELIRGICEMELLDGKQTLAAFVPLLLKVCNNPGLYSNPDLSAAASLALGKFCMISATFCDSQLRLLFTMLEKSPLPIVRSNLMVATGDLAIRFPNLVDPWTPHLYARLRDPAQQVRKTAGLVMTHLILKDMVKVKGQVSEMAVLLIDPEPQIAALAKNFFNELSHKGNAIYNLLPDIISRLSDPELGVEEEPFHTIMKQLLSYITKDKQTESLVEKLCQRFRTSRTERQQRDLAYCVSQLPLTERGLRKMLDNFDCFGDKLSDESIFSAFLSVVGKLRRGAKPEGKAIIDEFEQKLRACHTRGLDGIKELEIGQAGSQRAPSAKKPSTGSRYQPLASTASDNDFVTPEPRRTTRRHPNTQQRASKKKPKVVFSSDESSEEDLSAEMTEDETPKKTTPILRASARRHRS
Procedure, shortened: as §1

| % engagement VWA5B2_C1040 [1] | % engagement NCAPD2_C439 [2] | inhibition at 20 µM [2] | Structure (SMILES) |
| --- | --- | --- | --- |
| 74.25% | 80% | – | C=CC(=O)N1C[C@H](c2ccc(Br)cc2)[C@H]1C(=O)Nc1cccc2cccnc12 [MY-3B, (2S,3S)-1-acryloyl-3-(4-bromophenyl)-N-(quinolin-8-yl)azetidine-2-carboxamide] |
| 76.25% | – | 20% | C=CC(=O)N1C[C@H](c2ccc(Br)cc2)[C@@H]1C(=O)Nc1cccc2cccnc12 [MY-1B, (2R,3S)-1-acryloyl-3-(4-bromophenyl)-N-(quinolin-8-yl)azetidine-2-carboxamide] |
| 51.5% | 21.5% | – | C=CC(=O)N1C[C@H](c2ccc(Br)cc2)[C@H]1C(=O)Nc1cccc2cccnc12 [MY-3A, (2S,3S)-1-acryloyl-3-(4-bromophenyl)-N-(quinolin-8-yl)azetidine-2-carboxamide] |
| 76.5% | – | 29.5% | C=CC(=O)N1C[C@@H](c2ccc(Br)cc2)[C@H]1C(=O)Nc1cccc2cccnc12 [MY-1A, (2S,3R)-1-acryloyl-3-(4-bromophenyl)-N-(quinolin-8-yl)azetidine-2-carboxamide] |
